Experiments:
Caenorhabditis elegans = conditions: in vivo; cited from earlier work
[1] = in vivo; cited from earlier work
[2] = co-treatment with pramipexole; cited from earlier work
[3] = large doses, acute systemic administration; cited from earlier work
[4] = in vivo; cited from earlier work; remark: listed apart in the source
[5] = Period 2 (with oral domperidone) versus Period 1 (pramipexole alone)
From the text: The study is single center, single-blind study.
To be enrolled in the study, participants must meet the following inclusion/exclusion key criteria:
History of drug or other significant allergy. • 5.

[6] = doses approved for motor symptoms of PD; 535 PD patients; cited from earlier work
[7] = 4.5 mg/day with levodopa, entcapone, selegiline and zonisamide; after switch from immediate-release to extended-release; cited from earlier work
alpha-synuclein = alpha-synuclein (Homo sapiens, UniProt P37840); conditions: cited from earlier work
dopaminergic neurons = conditions: mouse PD model, cited from earlier work
[8] = 5 mg/day of pramipexole, cited from earlier work
[9] = molecular target: human wild-type alpha-synuclein (Homo sapiens, UniProt P37840); conditions: in vitro, by H2O2 plus cytochrome c; cited from earlier work
[10] = system: human neuroblastoma SH-SY5Y cells; conditions: cited from earlier work
brain cell systems = conditions: cited from earlier work
[11] = system: 6-OHDA-lesioned cell model; conditions: cited from earlier work
[12] = system: rat corticostriatal slices; conditions: 0.3, 1, 3 and 10 μM; cited from earlier work
[13] = system: nigral TH-positive neurons; conditions: MPTP-treated mice, 20 mg/kg; cited from earlier work
A53T α-synuclein = molecular target: T1, A53T α-synuclein (Homo sapiens, UniProt P37840, A53T); conditions: oral 40 mg/kg/day, cited from earlier work
T1 construct: host or cells: rat brain in vivo, transduced with a viral vector

[14] = 25 mg-50 mg, alone or with levodopa; cited from earlier work
nigral dopamine neurons = conditions: 6-OHDA mice, injection of 30 mg/kg; cited from earlier work
[15] = system: nigrostriatal dopaminergic neurons; conditions: chronic administration, compared with saline; cited from earlier work

CNCCC(Oc1ccc(C(F)(F)F)cc1)c1ccccc1 (stereo not drawn) [fluoxetine, 1-methylamino-3-phenyl-3-[4-(trifluoromethyl)phenoxy]propane]
amyloid-β-induced paralysis (Caenorhabditis elegans): significantly delay amyloid-β-induced paralysis
MPTP induced damage [1]: protect against
activity of pramipexole in the forced swimming test [2]: enhance the activity of pramipexole
extracellular concentrations of norepinephrine and dopamine [3]: significant increase in extracellular concentrations of norepinephrine and dopamine
6-OHDA induced damage [4]: protect against

CCCN[C@H]1CCc2nc(N)sc2C1 [pramipexole, (S)-6-propylamino-4,5,6,7-tetrahydro-1,3-benzothiazole-2-amine]
Maximum Tolerated Dose (MTD) of pramipexole [5]: higher than MTD during Period 1
neuroprotective (disease modifying) activity [6]: failed to evidence neuroprotective (i.e., disease modifying) activity
hallucinations [7]: induce hallucinations
synuclein oligomer formation / aggregation in vitro (alpha-synuclein): diminishes synuclein oligomer formation in vitro
immunoreactivity for alpha-synuclein (dopaminergic neurons; rotenone): reducing immunoreactivity for alpha-synuclein
toxic effects of rotenone on dopaminergic neurons (dopaminergic neurons): inhibits the toxic effects of rotenone on dopaminergic neurons
patients with nausea [8]: 76%
patients with vomiting [8]: 39%
patients not able to complete the study ([8]; presumably intolerable GI adverse events): 36%
oligomerization of human wild-type alpha-synuclein [9]: decreases the in vitro oligomerization of human wild-type alpha-synuclein
aggregation of alpha-synuclein [10]: inhibit the aggregation of alpha-synuclein

CCC(C)(C)C(=O)O[C@H]1C[C@@H](C)C=C2C=C[C@H](C)[C@H](CC[C@@H]3C[C@@H](O)CC(=O)O3)[C@H]21 [simvastatin, (1S,3R,7S,8S,8aR)-8-{2-[(2R,4R)-4-hydroxy-6-oxotetrahydro-2H-pyran-2-yl]ethyl}-3,7-dimethyl-1,2,3,7,8,8a-hexahydronaphthalen-1-yl 2,2-dimethylbutanoate]
protection against 6-hydroxydopamine (6-OHDA) (brain cell systems): protect against the deleterious consequences of the dopaminergic neurotoxin 6-hydroxydopamine
neuroprotection against dopaminergic neurodegeneration [11]: robust neuroprotection against dopaminergic neurodegeneration

NS(=O)(=O)Cc1noc2ccccc12 [zonisamide, benzo[d]isoxazol-3-ylmethanesulfonamide]
synuclein oligomer formation / aggregation in vitro (alpha-synuclein): inhibits the in vitro oligomerization and aggregation of alpha-synuclein
rotenone-induced toxicity (loss of corticostriatal field potential amplitude) [12]: significantly reduced the rotenone-induced toxicity
loss of nigral TH-positive neurons [13]: reduced the loss of nigral TH-positive neurons
striatal dopamine depletion [13]: attenuating the associated striatal dopamine depletion
survival of nigrostriatal dopamine neurons (A53T α-synuclein): no impact on the survival of nigrostriatal dopamine neurons
pace of degeneration (A53T α-synuclein; four weeks after viral vector injection, versus control group): significantly delayed the pace of degeneration
motor symptoms [14]: improve motor symptoms
loss of nigral dopamine neurons (nigral dopamine neurons): prevented the loss of nigral dopamine neurons
survival of nigrostriatal dopaminergic neurons [15]: improved the survival of nigrostriatal dopaminergic neurons

Source: patent US20220000854A1 (CHASE THERAPEUTICS CORPORATION, priority 2018, published 2022)
